Experimental data: patent publication US9701662B2, “Herbicidal compounds” (Syngenta Participations AG, priority 2014, dated 2017)

Legend:
Format in all cases: in vivo
Setaria faberi (SETFA) [1] = assay: Pre-emergence glasshouse herbicide test; conditions: pre-emergence (sprayed after one day cultivation), 1000 g/h, evaluated after 13 days, five point scale
Description: (§1) Seeds of a variety of test species are sown in standard soil in pots (Lolium perenne (LOLPE), Solanum nigrum (SOLNI), Amaranthus retoflexus (AMARE), Setaria faberi (SETFA), Echinochloa crus-galli (ECHCG), Ipomoea hederacea (IPOHE)). After cultivation for one day (pre-emergence) or after 8 days cultivation (post-emergence) under controlled conditions in a glasshouse (at 24/16° C., day/night; 14 hours light; 65% humidity), the plants are sprayed with an aqueous spray solution derived from the formulation of the technical active ingredient in acetone/water (50:50) solution containing 0.5% Tween 20 (polyoxyethelyene sorbitan monolaurate, CAS RN 9005-64-5). Compounds are applied at 1000 g/h. The test plants are then grown in a glasshouse under controlled conditions in a glasshouse (at 24/16° C., day/night; 14 hours light; 65% humidity) and watered twice daily. After 13 days for pre and post-emergence, the test is evaluated for the percentage damage caused to the plant. The biological activities are shown in the following table on a five point scale (5=80-100%; 4=60-79%; 3=40-59%; 2=20-39%; 1=0-19%).

[2] = tested on: Echinochloa crus-galli (ECHCG); assay: Pre-emergence glasshouse herbicide test; conditions: pre-emergence (sprayed after one day cultivation), 1000 g/h, evaluated after 13 days, five point scale
Description: as §1

[3] = tested on: Amaranthus retoflexus (AMARE); assay: Pre-emergence glasshouse herbicide test; conditions: pre-emergence (sprayed after one day cultivation), 1000 g/h, evaluated after 13 days, five point scale
Description: as §1

Lolium perenne (LOLPE) [4] = assay: Pre-emergence glasshouse herbicide test; conditions: pre-emergence (sprayed after one day cultivation), 1000 g/h, evaluated after 13 days, five point scale
Description: as §1

Solanum nigrum (SOLNI) [5] = assay: Pre-emergence glasshouse herbicide test; conditions: pre-emergence (sprayed after one day cultivation), 1000 g/h, evaluated after 13 days, five point scale
Description: as §1

[6] = tested on: Ipomoea hederacea (IPOHE); assay: Pre-emergence glasshouse herbicide test; conditions: pre-emergence (sprayed after one day cultivation), 1000 g/h, evaluated after 13 days, five point scale
Description: as §1

Setaria faberi (SETFA) [7] = assay: Post-emergence glasshouse herbicide test; conditions: post-emergence (sprayed after 8 days cultivation), 1000 g/h, evaluated after 13 days, five point scale
Description: as §1

[8] = tested on: Echinochloa crus-galli (ECHCG); assay: Post-emergence glasshouse herbicide test; conditions: post-emergence (sprayed after 8 days cultivation), 1000 g/h, evaluated after 13 days, five point scale
Description: as §1

[9] = tested on: Amaranthus retoflexus (AMARE); assay: Post-emergence glasshouse herbicide test; conditions: post-emergence (sprayed after 8 days cultivation), 1000 g/h, evaluated after 13 days, five point scale
Description: as §1

Lolium perenne (LOLPE) [10] = assay: Post-emergence glasshouse herbicide test; conditions: post-emergence (sprayed after 8 days cultivation), 1000 g/h, evaluated after 13 days, five point scale
Description: as §1

Solanum nigrum (SOLNI) [11] = assay: Post-emergence glasshouse herbicide test; conditions: post-emergence (sprayed after 8 days cultivation), 1000 g/h, evaluated after 13 days, five point scale
Description: as §1

[12] = tested on: Ipomoea hederacea (IPOHE); assay: Post-emergence glasshouse herbicide test; conditions: post-emergence (sprayed after 8 days cultivation), 1000 g/h, evaluated after 13 days, five point scale
Description: as §1

Compound	percentage damage caused to the plant, SETFA, PRE Application (Setaria faberi (SETFA) [1])	percentage damage caused to the plant, ECHCG, PRE Application [2]	percentage damage caused to the plant, AMARE, PRE Application [3]	percentage damage caused to the plant, LOLPE, PRE Application (Lolium perenne (LOLPE) [4])	percentage damage caused to the plant, SOLNI, PRE Application (Solanum nigrum (SOLNI) [5])	percentage damage caused to the plant, IPOHE, PRE Application [6]	percentage damage caused to the plant, SETFA, POST Application (Setaria faberi (SETFA) [7])	percentage damage caused to the plant, ECHCG, POST Application [8]	percentage damage caused to the plant, AMARE, POST Application [9]	percentage damage caused to the plant, LOLPE, POST Application (Lolium perenne (LOLPE) [10])	percentage damage caused to the plant, SOLNI, POST Application (Solanum nigrum (SOLNI) [11])	percentage damage caused to the plant, IPOHE, POST Application [12]
COc1ccc(-c2c(Cl)c(C(=O)Nc3nnnn3C)nn(C)c2=O)cc1OC [Compound 1.017]	5 (5=80-100%)	5 (5=80-100%)	5 (5=80-100%)	5 (5=80-100%)	5 (5=80-100%)	5 (5=80-100%)	5 (5=80-100%)	5 (5=80-100%)	5 (5=80-100%)	5 (5=80-100%)	5 (5=80-100%)	5 (5=80-100%)
Cn1nnnc1NC(=O)c1nn(C)c(=O)c(-c2ccc(Cl)cc2Cl)c1Cl [Compound 1.011]	5 (5=80-100%)	5 (5=80-100%)	5 (5=80-100%)	5 (5=80-100%)	5 (5=80-100%)	3 (3=40-59%)	5 (5=80-100%)	5 (5=80-100%)	3 (3=40-59%)	5 (5=80-100%)	5 (5=80-100%)	4 (4=60-79%)
Cc1ccc(C)c(-c2c(Cl)c(C(=O)Nc3nnnn3C)nn(C)c2=O)c1 [Compound 1.020]	5 (5=80-100%)	5 (5=80-100%)	5 (5=80-100%)	5 (5=80-100%)	5 (5=80-100%)	5 (5=80-100%)	5 (5=80-100%)	5 (5=80-100%)	5 (5=80-100%)	5 (5=80-100%)	5 (5=80-100%)	5 (5=80-100%)
Cc1c(Cl)c(C(=O)Nc2nnnn2C)nn(C)c1=O [Compound 1.007]	5 (5=80-100%)	5 (5=80-100%)	5 (5=80-100%)	5 (5=80-100%)	5 (5=80-100%)	5 (5=80-100%)	5 (5=80-100%)	5 (5=80-100%)	5 (5=80-100%)	5 (5=80-100%)	5 (5=80-100%)	5 (5=80-100%)
COc1cccc(-c2c(Cl)c(C(=O)Nc3nnnn3C)nn(C)c2=O)c1 [Compound 1.036]	5 (5=80-100%)	5 (5=80-100%)	5 (5=80-100%)	5 (5=80-100%)	5 (5=80-100%)	2 (2=20-39%)	5 (5=80-100%)	5 (5=80-100%)	5 (5=80-100%)	5 (5=80-100%)	5 (5=80-100%)	4 (4=60-79%)
CCOc1c(C(=O)Nc2nnnn2C)nn(C)c(=O)c1-c1ccccc1 [Compound 1.031]	5 (5=80-100%)	5 (5=80-100%)	5 (5=80-100%)	3 (3=40-59%)	5 (5=80-100%)	5 (5=80-100%)	5 (5=80-100%)	5 (5=80-100%)	5 (5=80-100%)	4 (4=60-79%)	5 (5=80-100%)	5 (5=80-100%)
Cn1nnnc1NC(=O)c1nn(C)c(=O)c(-c2ccccc2C(F)(F)F)c1Cl [Compound 1.037]	5 (5=80-100%)	5 (5=80-100%)	5 (5=80-100%)	5 (5=80-100%)	5 (5=80-100%)	5 (5=80-100%)	5 (5=80-100%)	5 (5=80-100%)	5 (5=80-100%)	5 (5=80-100%)	5 (5=80-100%)	5 (5=80-100%)
